The values below come from patent US9757405B2, “Compositions comprising rutin useful for the treatment of tumors resistant to chemotherapy” (PROBIOTICAL S.P.A., priority 2013, dated 2017).

Data set [1] in a line: Cell viability of non-tumor healthy fibroblasts HMF. The note with it: human. The text has this: (§1) The activity of the association of rutin with synthetic chemotherapeutics (cyclophosphamide) and of the association of rutin with arctigenin, arctiin, berberine, berbamine, sanguinarine, chelerythrine (referred to with the term “extracts” in the tables), was studied on resistant cell lines of adenocarcinomas and carcinomas compared with chemosensitive tumor cell lines and with line cells.
(§2) In particular, chemoresistant human tumor cells MDA-MB-231 (breast adenocarcinoma), ECV-304 (bladder carcinoma), HuH-7 (hepatocellular carcinoma) and HTB-43 (squamous cell carcinoma of the pharynx), chemosensitive tumor cells MCF-7 (breast adenocarcinoma) and non-tumor healthy human mammal fibroblasts (HMF) have been used.

Data set [2] deals with MDA-MB-231 (breast adenocarcinoma) cells. Briefly: Cell viability of chemoresistant MDA-MB-231 cells. The data set is classed as cell-based, human. The note with it: alone or in association with cyclophosphamide.
Excerpt: as §1, §2

In data set [1], `O=P1(N(CCCl)CCCl)NCCCO1` (stereo not shown) [Cyclophosphamide, cyclophosphamide] showed a viability at 850 ng/ml of 54%, a viability at 1000 ng/ml of 48% and a viability at 1300 ng/ml of 42%.
Regarding `O=c1c(O)c(-c2ccc(O)c(O)c2)oc2cc(O)cc(O)c12` [Quercetin, quercetin], the “Synergic effect in association with cyclophosphamide” value in data set [2] was “absence of synergic effects”.
